Experiments:
Aromatase [1] = molecular target: T1, Aromatase (Homo sapiens, UniProt P11511); experiment: In vitro inhibitory activity against Cytochrome P450 19A1 in human placental microsomes; set-up: species or system Placenta
T1 sequence (P11511 whole entry): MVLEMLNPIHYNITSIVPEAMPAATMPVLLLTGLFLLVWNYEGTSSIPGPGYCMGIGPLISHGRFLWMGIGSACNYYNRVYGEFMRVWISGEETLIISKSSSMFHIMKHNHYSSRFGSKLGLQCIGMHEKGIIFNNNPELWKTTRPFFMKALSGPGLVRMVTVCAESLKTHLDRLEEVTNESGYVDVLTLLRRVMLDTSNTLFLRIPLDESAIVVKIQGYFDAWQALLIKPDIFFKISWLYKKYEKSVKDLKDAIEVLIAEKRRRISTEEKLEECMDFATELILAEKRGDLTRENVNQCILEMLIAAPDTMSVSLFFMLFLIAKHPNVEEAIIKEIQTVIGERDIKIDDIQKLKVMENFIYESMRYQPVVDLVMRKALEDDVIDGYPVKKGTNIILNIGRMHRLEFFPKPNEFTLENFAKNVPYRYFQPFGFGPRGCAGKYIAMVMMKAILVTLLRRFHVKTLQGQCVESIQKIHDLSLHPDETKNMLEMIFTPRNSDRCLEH

Aromatase [2] = molecular target: T1, Aromatase; experiment: Catalytic rate constant for time dependent inactivation of Cytochrome P450 19A1; NT= time-dependent inactivation not observed
Aromatase [3] = molecular target: T1, Aromatase; experiment: Inactivation constant (Ki) for time-dependent inactivation of Cytochrome P450 19A1; NT= time-dependent inactivation not observed
Aromatase [4] = molecular target: T1, Aromatase; experiment: Apparent inhibition constant (Ki) Cytochrome P450 19A1; conditions: read-out: Ki app
Aromatase [5] = molecular target: T1, Aromatase; experiment: Inactivation constant (Ki) for time-dependent inactivation of Cytochrome P450 19A1
CYP19A1 (aromatase) = molecular target: T2, CYP19A1 (aromatase) (Homo sapiens, UniProt P11511); experiment: Catalytic rate constant for time dependent inactivation of Cytochrome P450 19A1
T2 sequence (P11511 whole entry): T1 sequence (P11511 whole entry)

Row | SMILES | IC50 (Aromatase [1]) [nM] | K inact (Aromatase [2]) | Ki (Aromatase [3]) | Ki (Aromatase [4]) [nM] | Ki (Aromatase [5]) [nM] | kinact (CYP19A1 (aromatase)) [s⁻¹]
1 | CCCCCC[C@@H]1CC2C(CCC3(C)C(=O)CCC23)C2(C)C=CC(=O)C=C12 (stereo not given in full) | 76 | Inactivation not observed | Inactivation not observed | 8 | – | –
2 | CCCCCC[C@H]1CC2C(CCC3(C)C(=O)CCC23)C2(C)C=CC(=O)C=C12 (stereo not given in full) | 280 | – | – | 25 | 650 | 0.000833
3 | CCCCC[C@H]1CC2C(CCC3(C)C(=O)CCC23)C2(C)C=CC(=O)C=C12 (stereo not given in full) | 140 | Inactivation not observed | Inactivation not observed | 11 | – | –
4 | CCCCCCC[C@H]1CC2C(CCC3(C)C(=O)CCC23)C2(C)C=CC(=O)C=C12 (stereo not given in full) | 250 | Inactivation not observed | Inactivation not observed | 20 | – | –
5 | CCCCCCC[C@@H]1CC2C(CCC3(C)C(=O)CCC23)C2(C)C=CC(=O)C=C12 (stereo not given in full) | 60 | Inactivation not observed | Inactivation not observed | 7.8 | – | –
6 | C[C@H]1CC2C(CCC3(C)C(=O)CCC23)C2(C)C=CC(=O)C=C12 (stereo not given in full) | – | – | – | – | – | 0.0008
7 | CCCCC[C@@H]1CC2C(CCC3(C)C(=O)CCC23)C2(C)C=CC(=O)C=C12 (stereo not given in full) | 54 | Inactivation not observed | Inactivation not observed | 5 | – | –
8 | CCC[C@@H]1CC2C(CCC3(C)C(=O)CCC23)C2(C)C=CC(=O)C=C12 (stereo not given in full) | 60 | Inactivation not observed | Inactivation not observed | 7 | – | –
9 | CC[C@@H]1CC2C(CCC3(C)C(=O)CCC23)C2(C)C=CC(=O)C=C12 (stereo not given in full) | 54 | Inactivation not observed | Inactivation not observed | 4.7 | – | –
10 | C[C@@H]1CC2C(CCC3(C)C(=O)CCC23)C2(C)C=CC(=O)C=C12 (stereo not given in full) | – | – | – | – | – | 0.00102
11 | CCC[C@H]1CC2C(CCC3(C)C(=O)CCC23)C2(C)C=CC(=O)C=C12 (stereo not given in full) | 270 | – | – | 22 | 339 | 0.000733
12 | CCCC[C@@H]1CC2C(CCC3(C)C(=O)CCC23)C2(C)C=CC(=O)C=C12 (stereo not given in full) | 180 | Inactivation not observed | Inactivation not observed | 14 | – | –
13 | CC[C@H]1CC2C(CCC3(C)C(=O)CCC23)C2(C)C=CC(=O)C=C12 (stereo not given in full) | 250 | – | – | 19 | 196 | 0.00108
14 | CCCC[C@H]1CC2C(CCC3(C)C(=O)CCC23)C2(C)C=CC(=O)C=C12 (stereo not given in full) | 200 | – | – | 16 | 571 | 0.000483
